In patent US20170269060A1, “Assays and Compounds to Treat Kidney Diseases” (Rush University Medical Center, priority 2014, published 2017):

Key:
[1] = test system: murine podocytes; assay: Podocyte HCS phenotypic assay, PAN-induced podocyte injury; format: cell-based
Experimental: Conditionally immortalized human and murine podocytes were used in a majority of the assays. Human and murine podocytes were cultured as have been described previously (Saleem et al., JASN 13, 630-638 (2002); Mundel, Reiser et al., Experimental Cell Research, 236, p 248 (1997)). For example, murine podocytes derived from the mouse line H-2Kb-tsA58 were cultured under permissive conditions at 33° C. on rat-tail collagen coated dishes in RPMI medium supplemented with 10% heat inactivated FBS, penicillin and streptomycin (100 U/ml), and 10 U/ml recombinant mouse γ-interferon. Cells were then trypsinized and re-plated for differentiation at 37° C. in medium without γ-interferon. The cells were differentiated for 0 to 7 days and then reseeded to rat-tail collagen coated multi-well plates at a density of 1500/well or 500/well for 96 and 384 well plates, respectively. Cells were then further differentiated for another 5-14 days in the multi-well plates for subsequent experimentation with various reagents prior to fixation and analyses.
In some embodiments, podocytes were cultured at 37° C. for the first 7 days of differentiation in large tissue culture flasks and subsequently reseeded and further cultured at 37° C. in the 96-well assay plates for the next 4-6 days to provide low well-to-well variability in cell number in the assay plates and healthy podocytes expressing specific and well characterized podocyte markers synaptopodin and podocin.
Differentiated podocytes were cultured in 96-well or 384-well multiwall optical plates (PerkinElmer, Boston, Mass.). In some embodiments, differentiated podocytes were treated with various amounts of puromycin aminonucleoside (PAN), […] LPS, Adriamycin and other agents. In some embodiments, the cells were co-treated with chemical and other agents (such as mizouribine) to prevent damage from damaging agents (such as PAN). In other embodiments, the rescue agents were added 0-48 h after the addition of injury causing agents. In some embodiments, patient samples such as blood, serum, urine or other samples were added to differentiated podocytes to identify disease causing agents. In some embodiments, primary, differentiated patient podocytes were cultured to identify defects in structure and/or function.
After culturing for the appropriate time and treatment or control, cultured podocytes in multi-well optical plates were rinsed with phosphate buffered saline (PBS) and subsequently fixed using a solution of paraformaldehyde and sucrose in PBS (at a final concentration of 4% paraformaldehyde and 2% sucrose in PBS) for 30 min at room temperature. Following fixation, the cells were permeabilization using a solution of 0.3% Triton X-100 in PBS for 15 min at room temperature. For visualization of filamentous-actin (F-Actin) in cells, cells were stained with a solution of Alexa fluor 568 phalloidin (Invitrogen), as previously described. HCS CellMask Blue (Invitrogen) was used as a fluorescent stain for visualizing nuclei, cytoplasm and the individual cell boundaries. Additional proteins that were fluorescently labeled and analyzed using appropriate primary mAbs include synaptopodin (synpo, primary mAb from Santa Cruz), Paxillin (primary mAb clone Y113 from Millipore) for quantitation of focal adhesions, beta1 integrin, podocin, WT1 nephrin, CD2-AP may also be used. Other proteins may also be used for labeling. Appropriate secondary antibodies (fluorescently labeled) were used for fluorescent visualizations. High throughput confocal microscopy was done using the Opera LX (Perkin Elmer) with filters and exposure times according to manufacturer's instructions and as described before. Images were used in subsequent image analysis for quantitation of a variety of cellular parameters. Assays were performed in replicate wells for assay robustness.
Images for each frame of each well in multiple fluorescent channels were acquired using OPERA imaging system. […]

[2] = test system: murine podocytes; assay: Primary HCS screen of chemical library, cell roundness Z score, PAN injury; format: cell-based; conditions: PAN 16 μg/ml, 48 hours; Z-score cutoff ≦−1.28
Experimental: Screening of chemical libraries, which include the MicroSource Spectrum collection (MicroSource Discovery Systems, Inc., Gaylorsville, C T, 2000 compounds) and Enzo kinase inhibitor array (Enzo Life Sciences, Farmingdale, N.Y., 80 compounds), Sigma, Millipore, Tocris and Cayman (41 compounds), was performed using multiwall plates. Podocytes cultured in multiwall plates were used in these assays. 100 nL of each compound, also in multiwall plates (at a stock concentration of 1 mM to 10 mM in DMSO), was added to each well of a podocyte containing multiwall plate using the Perkin Elmer Janus automated workstation with the help of a 96-pin or 384-pin pin tool (100 nL, PerkinElmer). The compounds were added in the absence or presence of podocyte damaging agent (such as PAN). The plates containing the compounds were subsequently placed in tissue culture incubators and cells were further cultured for 1-72 h at 37° C. A compound that decreased PAN damaged was identified by quantifying the changes in at least one of the following parameters: cell morphology, cell roundedness, F-actin intensity, number of focal adhesions, intensity or size of focal adhesions, length of actin fibers, size of actin fibers, percent damaged or percent healthy cells etc. In certain cases, hits were validated by acquiring a fresh batch of the compound from commercial sources and performing dose-response curves. Images from the primary screen were quantified for cell morphology parameter and were normalized by calculating z-score (z) for each test compound, to compensate for any plate-to-plate variability. (Wiggins, Kidney International, 2007) z was calculated for each of the test compounds using the formula: […]
where x is the raw measured value with each compound, μ is the mean of all measured raw values across a plate and a is the standard deviation of the measurements. A z-score of […], corresponding to 90% population under the curve, was used as a cutoff to identify primary hits in the assay.
To identify small molecules that protect podocytes from PAN injury, a chemical library of 2121 pharmacologically active compounds was screened. Podocytes were treated with compounds from the chemical library in the presence of PAN (16 μg/ml) at 37° C. for 48 hours. The assay plates also contained eight positive (PAN and MZR treatment) and eight negative (PAN treatment) control wells. Wells were imaged and analyzed, and the mean cell roundness per cell was calculated for each well. Mean cell roundness was normalized using plate-based positive and negative controls, and a Z score for the change in cell morphology on treatment with each compound (SD away from the plate mean) was calculated. The results from the screen are presented as a graph in FIG. 7A. Wells with nuclei counts. […] Primary hits (compounds that protected podocytes from PAN damage) were identified from the assay using a Z-score cutoff of ≦−1.28 corresponding to the 10% population on one side of the bell-shaped curve. […] Given that our assay is image based, the images from all initial hits were visually inspected manually, which eliminated 10 compounds as nonhits. […] The identified list of primary hit compounds included three Rho kinase inhibitors (Y27632, GSK 429286, and Thiazovivin) and a p38 kinase inhibitor (SB 203580). […] Next, to validate the hit compounds identified from our screen, selected primary hits were reanalyzed using independently obtained powder forms of the compounds.

## O=S(=O)(NCC1CC1)c1ccc(Nc2nccc(N3CCCc4cc(O)ccc43)n2)cc1 [Pyrintegrin]
[1]; 30 ug/ml PAN, co-treatment, multi-parameter algorithm
  prevention of PAN induced injury, dose-response of percent damaged cells (FIG. 4A-4P): prevented PAN induced injury
[1]; PAN 16 μg/ml, 48 hours, F-actin fibers per cell (FIG. 8), read-out: apparent half-maximal effective concentration (EC50), protection from PAN-induced damage
  EC50: 0.8 µM
[1]; PAN 16-30 μg/ml, 48 hours, F-actin fibers and other parameters
  dose-dependent protection of podocytes from PAN-induced injury: dose dependently protected
[1]; PAN cotreatment (FIG. 9B)
  loss of actin stress fibers and focal adhesion complexes on PAN-induced injury: protected podocytes from the loss of actin stress fibers and focal adhesion complexes
[1]; healthy cells, no PAN
  actin stress fibers in healthy cells: small but significant increase in actin stress fibers
[2]
  primary hit (protects podocytes from PAN damage): top primary hit
